Measured values taken from PubChem BioAssay (NCI).
“And” between values parts separate entries of the source, which are not always exact repeats. Equal values may be shown once.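 The compound was tested at five concentrations on cells cultured in 96-well plates, with a 48-hour exposure period. The concentration for 50% growth inhibition is given as GI50. TGI: total growth inhibition.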

Key:
Test in all cases: NCI tumour cell line growth inhibition, 48 h
DMS 114 small cell lung = test system: DMS 114 small cell lung
HOP-18 NSCLC = test system: HOP-18 NSCLC
KM20L2 colon = test system: KM20L2 colon
M19-MEL melanoma = test system: M19-MEL melanoma
RXF-631 renal = test system: RXF-631 renal
BT-549 breast = test system: BT-549 breast
DU-145 prostate = test system: DU-145 prostate
MDA-MB-231 breast = test system: MDA-MB-231 breast
MDA-N = test system: MDA-N
P388 leukemia = test system: P388 leukemia

## COc1ccc2c(c1OC)C(C=C(c1ccccc1)c1ccccc1)CN(C)C2 (stereo not given)
DMS 114 small cell lung
  TGI: 29.3 µM
HOP-18 NSCLC
  TGI: 67.7 µM
KM20L2 colon
  TGI: 35.5 µM
M19-MEL melanoma
  TGI: 81 µM
RXF-631 renal
  TGI: 66.4 µM

## CCN(CC)CCC(=O)N1C/C(=C/c2ccccc2)C(=O)/C(=C\c2ccccc2)C1
BT-549 breast
  TGI: 1.81 µM
DMS 114 small cell lung
  TGI: 4.54 µM
DU-145 prostate
  TGI: 12.5 µM
HOP-18 NSCLC
  TGI: 9.19 µM
KM20L2 colon
  TGI: 3.5 µM
M19-MEL melanoma
  TGI: 3.68 µM
MDA-MB-231 breast
  TGI: 2.57 µM
MDA-N
  TGI: 2.45 µM

## CSC1SCC2C(=O)N(C)C(C(C)C)C(=O)OCC(NC(=O)c3cnc4ccccc4n3)C(=O)NC(C)C(=O)N(C)C1C(=O)N(C)C(C(C)C)C(=O)OCC(NC(=O)c1cnc3ccccc3n1)C(=O)NC(C)C(=O)N2C (stereo not given)
BT-549 breast
  GI50: < 0.001 µM
  TGI: 0.0158 µM
DMS 114 small cell lung
  GI50: 0.00345 nM
  TGI: 8.38e-06 µM
DU-145 prostate
  GI50: < 0.001 µM
HOP-18 NSCLC
  GI50: 9.66 pM
KM20L2 colon
  GI50: 5.29e-06 µM
MDA-MB-231 breast
  TGI: 0.00192 µM and 0.00985 µM and 0.0142 µM
P388 leukemia
  GI50: 4.99 pM

## Nc1nc(CC2(O)CCCCC2)cc(-c2ccccc2)n1
DMS 114 small cell lung
  TGI: > 70.6 µM
HOP-18 NSCLC
  TGI: > 90 µM
KM20L2 colon
  TGI: > 53.7 µM
M19-MEL melanoma
  TGI: > 72.8 µM
RXF-631 renal
  TGI: > 100 µM

## C/C(=N\NS(=O)(=O)c1c(C)cc(C)cc1C)c1ccc[n+]([O-])n1
DMS 114 small cell lung
  TGI: 36.8 µM
HOP-18 NSCLC
  TGI: 47.3 µM
KM20L2 colon
  TGI: 54.6 µM
M19-MEL melanoma
  TGI: 29 µM
RXF-631 renal
  TGI: 93 µM

## N/C(=N\N=C\c1ccc(O)c(O)c1)NO
DMS 114 small cell lung
  TGI: > 100 µM
HOP-18 NSCLC
  TGI: > 100 µM
KM20L2 colon
  TGI: > 100 µM
M19-MEL melanoma
  TGI: > 100 µM
RXF-631 renal
  TGI: > 100 µM

## O=C(COC(=O)c1cccc2c(=O)c3ccccc3[nH]c12)Nc1ccc(S(=O)(=O)Nc2ncccn2)cc1
DMS 114 small cell lung
  TGI: > 100 µM
KM20L2 colon
  TGI: > 100 µM
M19-MEL melanoma
  TGI: > 100 µM
RXF-631 renal
  TGI: > 100 µM

## COc1c(Cl)[c]([Hg][O]C(C)=O)c(NCC(C)=O)c(OC)[c]1[Hg][O]C(C)=O
DMS 114 small cell lung
  GI50: 4120 nM
  TGI: 26.9 µM
KM20L2 colon
  GI50: 28.3 µM
  TGI: > 100 µM
M19-MEL melanoma
  GI50: 14.8 µM
  TGI: 30.1 µM
RXF-631 renal
  GI50: 1.22 µM
  TGI: 3.88 µM

## COc1cc(/C=C2\Cc3ccccc3C2=O)cc(OC)c1OC
DMS 114 small cell lung
  TGI: > 100 µM
HOP-18 NSCLC
  TGI: > 100 µM
KM20L2 colon
  TGI: > 100 µM
M19-MEL melanoma
  TGI: > 100 µM
RXF-631 renal
  TGI: > 100 µM

## CCOc1ccc(N=Cc2ccc3ccccc3n2)cc1
HOP-18 NSCLC
  TGI: > 100 µM
KM20L2 colon
  TGI: > 100 µM
M19-MEL melanoma
  TGI: > 100 µM
RXF-631 renal
  TGI: > 100 µM

## CC(C)=CCC/C(C)=C/CC/C(C)=C/C1CCC(=O)C1(C)C (stereo not given)
DMS 114 small cell lung
  TGI: 28.2 µM
HOP-18 NSCLC
  TGI: 63.1 µM
KM20L2 colon
  TGI: 31.9 µM
M19-MEL melanoma
  TGI: 38 µM
RXF-631 renal
  TGI: > 100 µM

## CC1(C)Oc2ccccc2[N+]([O-])=C1c1ccccc1
DMS 114 small cell lung
  TGI: > 100 µM
KM20L2 colon
  TGI: > 100 µM
M19-MEL melanoma
  TGI: > 100 µM
RXF-631 renal
  TGI: > 100 µM

## [N-]=[N+]=NC1C2CC3CC(C2)CC1C3 (stereo not given)
DMS 114 small cell lung
  TGI: > 100 µM
HOP-18 NSCLC
  TGI: > 100 µM
KM20L2 colon
  TGI: > 100 µM
M19-MEL melanoma
  TGI: > 100 µM
RXF-631 renal
  TGI: > 100 µM

## CCN(CC)/[N+]([O-])=N/OCC(C)O (stereo not given)
DMS 114 small cell lung
  TGI: > 100 µM
M19-MEL melanoma
  TGI: > 100 µM
RXF-631 renal
  TGI: > 100 µM

## Fc1ccc2c(c1)cc1ccc3cccc4ccc2c1c34
DMS 114 small cell lung
  TGI: > 100 µM
HOP-18 NSCLC
  TGI: > 100 µM
KM20L2 colon
  TGI: > 100 µM
M19-MEL melanoma
  TGI: > 100 µM
RXF-631 renal
  TGI: > 100 µM

## CCCCCN(CCCCC)C(=O)[C@H](CCC(=O)OCc1ccccc1)NC(=O)c1cc2ccccc2[nH]1
DMS 114 small cell lung
  TGI: > 100 µM
HOP-18 NSCLC
  TGI: > 100 µM
KM20L2 colon
  TGI: > 100 µM
RXF-631 renal
  TGI: > 100 µM

## COC(=O)c1ccc(/C=C/S(=O)(=O)c2ccccc2)cc1
DMS 114 small cell lung
  TGI: > 100 µM
KM20L2 colon
  TGI: > 100 µM
M19-MEL melanoma
  TGI: > 100 µM
RXF-631 renal
  TGI: > 100 µM

## Cn1cc2ccccc2c1-c1nc(F)nc(Nc2ccc(N)cc2)n1
DMS 114 small cell lung
  TGI: 38.1 µM
KM20L2 colon
  TGI: 47.4 µM
M19-MEL melanoma
  TGI: 25.2 µM
RXF-631 renal
  TGI: 38.2 µM

## C/C=C(\C)C(=O)N1c2ccccc2CC1c1c(C)[nH]c2ccccc12 (stereo not given)
KM20L2 colon
  TGI: > 100 µM
M19-MEL melanoma
  TGI: > 100 µM
RXF-631 renal
  TGI: > 100 µM

## CC(C)(C)C1CCC(=O)C(C(O)CC2CC(=O)N(c3ccccc3)C(=O)C2)C1 (stereo not given)
DMS 114 small cell lung
  TGI: > 100 µM
HOP-18 NSCLC
  TGI: > 100 µM
KM20L2 colon
  TGI: > 100 µM
M19-MEL melanoma
  TGI: > 100 µM
RXF-631 renal
  TGI: > 100 µM

## COC(=O)C1=C(O)c2cc3c(cc2[C@H](c2cc(OC)c(OC)c(OC)c2)C1)OCO3
DMS 114 small cell lung
  TGI: > 100 µM
HOP-18 NSCLC
  TGI: > 100 µM
KM20L2 colon
  TGI: > 100 µM
M19-MEL melanoma
  TGI: 10.1 µM
RXF-631 renal
  TGI: > 100 µM

## CCOC(=O)NC(=O)c1cn(C2OC(COC(=O)CCCCCCCCC(=O)OCC3OC(n4cc(C(=O)NC(=O)OCC)c(=O)[nH]c4=O)C4OC(C)(C)OC34)C3OC(C)(C)OC32)c(=O)[nH]c1=O (stereo not given)
DMS 114 small cell lung
  TGI: > 100 µM
HOP-18 NSCLC
  TGI: > 100 µM
KM20L2 colon
  TGI: > 100 µM
M19-MEL melanoma
  TGI: 86.2 µM
RXF-631 renal
  TGI: > 100 µM
